In US20130244963A1 (Portola Pharmaceuticals, Inc., priority 2010, published 2013):
Each block holds one molecule with its values, some of them ahead of it.

How the values were obtained:
[1] = test system: collagen induced arthritis (CIA); experiment: Rat Collagen Induced Arthritis (CIA) Model, hind paw inflammation score; assay type: in vivo; parameters: scale not given here
Excerpt: Holmdahl R, Lorentzen J C, Lu S, Olofsson P, Wester L, Holmberg J, et al. Arthritis in rats with non-immunogenic adjuvants as models for rheumatoid arthritis. […] On day 10, the rats were boosted with a second subcutaneous injection. Test article administration was initiated when at least one hind paw was inflamed (clinical arthritis score=1) and enrollment into a treatment group was designated as day 1 of the study for each individual animal (n=4 to 8/dose group). Progression of disease was evidenced by increased edema and erythema of one or both ankle joints, followed by the involvement of the metatarsal and interphalangeal joints. […] Hind paws were scored daily (inflammation score) for progression of disease and evaluated for histopathological changes in cartilage structure, cellularity, matrix glycoaminoglycans, and synovial inflammation at the end of the 16-day treatment course. […] In Tables below, mean scores are calculated for all animals in dosed group over the entire experimental time course.

DHL4 = experiment: Viability of DLBCL cell line DHL4 by luminescent ATP detection (Cell Titer Glo); assay type: cell-based; conditions: single agents; three days; ATP luminescence
Experimental: The final concentration of solvent (DMSO) during experimental time course was 1%. The robotic system Biomek 2 was used for all pipetting steps. After three days at 37 degrees in a tissue culture incubator, viability of cells was determined by lysis and luminescent ATP detection. ATP detection was carried out by addition of 20 μL Cell Titer Glo (Promega) following the protocol provided by manufacturer.
The concentrations of the inhibitors required to obtain 50, 75 or 90 percent inhibition are plotted in an isobologram (Tallarida R J. Dose response relations in pharmacology, Chapman and Hall/CRC, 2000).

[2] = Lymphocyte counts in rats with bovine collagen antibody mediated inflammation; assay type: in vivo, rat
Excerpt: In 7 control rats treated with vehicle, lymphocyte count was […]. In 4 rats treated with dexamethasone, count=2.32×10^3/μL, p=0.42. However 3 out of 4 of rats did suffer from lymphopenia.

JAK kinases = conditions: cited from earlier work
cKit = cKit (Homo sapiens, UniProt P10721); conditions: cited from earlier work
cKit, sequence (P10721 26-976): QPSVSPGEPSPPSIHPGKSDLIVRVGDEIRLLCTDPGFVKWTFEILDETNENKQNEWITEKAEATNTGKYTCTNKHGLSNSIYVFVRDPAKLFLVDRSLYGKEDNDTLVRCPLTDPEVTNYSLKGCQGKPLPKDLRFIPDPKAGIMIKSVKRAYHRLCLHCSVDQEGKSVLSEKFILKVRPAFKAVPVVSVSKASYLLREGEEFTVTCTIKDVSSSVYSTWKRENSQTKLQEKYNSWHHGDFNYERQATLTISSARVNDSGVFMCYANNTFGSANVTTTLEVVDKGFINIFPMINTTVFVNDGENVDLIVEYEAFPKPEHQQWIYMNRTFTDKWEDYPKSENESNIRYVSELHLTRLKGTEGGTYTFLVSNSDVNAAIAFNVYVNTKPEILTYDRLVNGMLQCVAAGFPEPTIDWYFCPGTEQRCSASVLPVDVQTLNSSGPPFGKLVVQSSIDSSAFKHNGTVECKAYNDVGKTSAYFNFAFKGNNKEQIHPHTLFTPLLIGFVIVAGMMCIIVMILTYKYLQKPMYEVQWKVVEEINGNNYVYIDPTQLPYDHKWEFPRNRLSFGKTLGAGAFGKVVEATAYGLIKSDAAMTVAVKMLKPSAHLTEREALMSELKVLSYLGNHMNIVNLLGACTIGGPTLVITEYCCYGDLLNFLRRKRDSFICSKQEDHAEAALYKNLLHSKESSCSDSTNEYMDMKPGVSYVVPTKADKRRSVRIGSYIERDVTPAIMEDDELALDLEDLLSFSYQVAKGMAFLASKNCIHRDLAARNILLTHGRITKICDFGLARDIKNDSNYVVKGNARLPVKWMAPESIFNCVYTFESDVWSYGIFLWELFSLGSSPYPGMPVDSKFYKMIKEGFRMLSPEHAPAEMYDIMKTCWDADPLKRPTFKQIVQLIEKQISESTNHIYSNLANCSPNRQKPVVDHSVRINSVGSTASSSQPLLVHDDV

Src kinase = Src kinase (Homo sapiens, UniProt P12931); conditions: cited from earlier work
Src kinase, sequence (P12931 whole entry): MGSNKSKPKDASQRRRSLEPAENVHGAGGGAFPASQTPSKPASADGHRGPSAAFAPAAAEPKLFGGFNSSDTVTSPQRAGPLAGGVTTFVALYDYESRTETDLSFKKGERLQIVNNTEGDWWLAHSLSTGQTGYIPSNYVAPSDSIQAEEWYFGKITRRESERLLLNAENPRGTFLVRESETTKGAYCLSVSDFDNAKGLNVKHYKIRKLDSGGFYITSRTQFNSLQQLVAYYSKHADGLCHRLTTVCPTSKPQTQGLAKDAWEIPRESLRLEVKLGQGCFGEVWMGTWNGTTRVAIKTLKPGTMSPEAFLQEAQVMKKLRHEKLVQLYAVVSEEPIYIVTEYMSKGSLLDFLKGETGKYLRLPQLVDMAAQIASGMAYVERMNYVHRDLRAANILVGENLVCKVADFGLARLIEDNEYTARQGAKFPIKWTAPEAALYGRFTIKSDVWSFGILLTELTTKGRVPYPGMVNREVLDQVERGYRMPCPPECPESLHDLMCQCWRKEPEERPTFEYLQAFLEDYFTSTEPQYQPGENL

Flt3 = biological target: T1, Flt3 (Homo sapiens, UniProt P36888); conditions: cited from earlier work
T1 sequence (P36888 27-993): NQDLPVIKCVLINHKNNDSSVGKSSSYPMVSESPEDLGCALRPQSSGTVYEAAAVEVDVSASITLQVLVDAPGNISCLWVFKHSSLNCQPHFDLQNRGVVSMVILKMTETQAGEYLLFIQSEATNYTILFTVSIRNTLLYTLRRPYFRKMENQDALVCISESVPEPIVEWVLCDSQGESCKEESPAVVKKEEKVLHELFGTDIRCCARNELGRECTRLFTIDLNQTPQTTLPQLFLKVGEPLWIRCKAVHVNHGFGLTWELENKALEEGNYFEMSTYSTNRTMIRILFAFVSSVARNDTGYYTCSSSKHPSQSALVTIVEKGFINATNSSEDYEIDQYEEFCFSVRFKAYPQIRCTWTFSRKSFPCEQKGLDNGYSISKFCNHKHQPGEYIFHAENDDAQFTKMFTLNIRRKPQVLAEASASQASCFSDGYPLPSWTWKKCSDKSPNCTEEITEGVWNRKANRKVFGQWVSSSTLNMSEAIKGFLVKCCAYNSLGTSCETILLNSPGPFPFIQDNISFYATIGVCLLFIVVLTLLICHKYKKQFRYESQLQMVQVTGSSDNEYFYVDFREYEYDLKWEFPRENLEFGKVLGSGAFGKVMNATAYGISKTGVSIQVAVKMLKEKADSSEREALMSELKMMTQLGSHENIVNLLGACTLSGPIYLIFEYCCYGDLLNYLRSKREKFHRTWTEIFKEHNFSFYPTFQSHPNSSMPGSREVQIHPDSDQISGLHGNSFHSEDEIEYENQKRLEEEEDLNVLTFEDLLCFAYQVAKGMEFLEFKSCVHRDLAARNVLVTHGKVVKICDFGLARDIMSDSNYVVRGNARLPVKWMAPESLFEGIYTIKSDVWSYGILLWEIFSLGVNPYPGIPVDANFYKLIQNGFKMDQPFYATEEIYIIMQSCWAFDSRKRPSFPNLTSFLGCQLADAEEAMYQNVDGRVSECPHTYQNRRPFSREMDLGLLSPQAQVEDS

SU-DHL4 [3] = experiment: Induction of apoptosis, Annexin V binding; assay type: cell-based
CD69 [4] = experiment: B cell activity in human whole blood: BCR-induced CD69 expression; assay type: cell-based; conditions: healthy normal volunteers, ex vivo
pERK [5] = experiment: BCR-induced pERK formation in NHL cell lines; assay type: cell-based; conditions: Homo sapiens
Syk (Y525/526) = experiment: BCR-induced Syk (Y525/526) autophosphorylation in NHL cell lines; assay type: cell-based; conditions: Homo sapiens, SU-DHL-4; SU-DHL4; read-out: BCR-induced Syk (Y525/526) auto-phosphorylation (IC50)
SU-DHL6 [6] = experiment: Induction of apoptosis, caspase 3 cleavage; assay type: cell-based
CD69 [7] = experiment: Whole blood B cell activation (CD69) in RA patients with or without MTX; assay type: cell-based, human; conditions: blood from RA patients on stable doses of MTX (n=18) versus without MTX (n=14); anti IgD activation
Excerpt: In vitro study of whole blood B cell activation (CD69) in stable RA patients treated with MTX (n=18) or without MTX (n=14).

leukocytes = experiment: Leukocyte rolling and adhesion in whole blood on collagen type 1 + JAM-C surface; assay type: cell-based, human; conditions: for percentage increase in fluorescence intensity over baseline: Compound 1 3 uM
Excerpt: Junction adhesion molecule C (JAM-C) mediates recruitment and adhesion of leukocytes to synovium of patients with rheumatoid arthritis (Rabquer B J, Arthritis Rheum, 2008; 58(10):3020-9). This is an important step in the etiology of rheumatoid arthritis and disruption of this activity may have therapeutic benefit in the treatment of patients with inflammatory diseases such as RA. In order to use an in-vitro experimental system to mimic migration and adhesion of leukocytes, we have used a collagen and JAM-C coated surface for the assay.
Leukocyte rolling and adhesion in human whole blood (from healthy normal volunteers or patients with rheumatoid arthritis) was monitored using real time fluorescence microscopy. […] Prior to experimentation, leukocytes were labeled in whole blood with Rhodamine 6G to permit visualization by fluorescence microscopy. The increase in fluorescence intensity is proportional to the amount of fluorescently labeled leukocytes recruited under the area of observation. […] For quantitation of inhibitory activity (TABLE), data are presented as percentage increase in fluorescence intensity over baseline 180 and 360 sec post initiation of the blood perfusion (see FIG. 4).

pBLNK = experiment: BCR-induced pBLNK formation in NHL cell lines; assay type: cell-based; conditions: Homo sapiens
pERK [8] = experiment: B cell activity in human whole blood: BCR-induced pERK formation; assay type: cell-based; conditions: healthy normal volunteers, ex vivo
SU-DHL6 [9] = experiment: Induction of apoptosis, Annexin V binding; assay type: cell-based
pAKT = experiment: BCR-induced pAKT formation in NHL cell lines; assay type: cell-based; conditions: Homo sapiens, Ramos
SU-DHL4 [10] = experiment: Induction of apoptosis, caspase 3 cleavage; assay type: cell-based
[11] = Compound 1 5 mg/kg, first experimental design (5/15/50 mg/kg)
[12] = Compound 1 5 mg/kg, second experimental design (5/10/15 mg/kg)
[13] = Compound 1 10 mg/kg, second experimental design (5/10/15 mg/kg)
[14] = Compound 1 15 mg/kg, first experimental design (5/15/50 mg/kg)
[15] = Compound 1 15 mg/kg, second experimental design (5/10/15 mg/kg)
[16] = Compound 1 50 mg/kg, first experimental design (5/15/50 mg/kg)

SMILES: CN(Cc1cnc2nc(N)nc(N)c2n1)c1ccc(C(=O)N[C@@H](CCC(=O)O)C(=O)O)cc1 [Methotrexate, reference compound]
Maximum Inflammation Score measurement ([1]; Methotrexate 0.1 mg/kg): 4.63 | Minimum Inflammation Score measurement ([1]; Methotrexate 0.1 mg/kg): 1.25 | Mean Inflammation Score ([1]; Methotrexate 0.1 mg/kg, all animals over entire time course): 3.65 | Maximum Inflammation Score measurement ([1]; Methotrexate 0.3 mg/kg): 5.00 | Minimum Inflammation Score measurement ([1]; Methotrexate 0.3 mg/kg): 1.00 | Mean Inflammation Score ([1]; Methotrexate 0.3 mg/kg, all animals over entire time course): 4.02 | Maximum Inflammation Score measurement ([1]; Methotrexate 1.0 mg/kg): 4.00 | Minimum Inflammation Score measurement ([1]; Methotrexate 1.0 mg/kg): 1.13 | Mean Inflammation Score ([1]; Methotrexate 1.0 mg/kg, all animals over entire time course): 2.90 | Maximum Inflammation Score measurement ([1]; Methotrexate 2.0 mg/kg): 2.50 | Minimum Inflammation Score measurement ([1]; Methotrexate 2.0 mg/kg): 1.00 | Mean Inflammation Score ([1]; Methotrexate 2.0 mg/kg, all animals over entire time course): 2.11

SMILES: COc1cccc2c1C(=O)c1c(O)c3c(c(O)c1C2=O)C[C@@](O)(C(=O)CO)C[C@@H]3O[C@H]1C[C@H](N)[C@H](O)[C@H](C)O1 [Doxorubicin, reference compound]
inhibitory activity on viability of DHL4 cells (in words) (DHL4): dose responsive inhibitory activity

rats suffering from lymphopenia ([2]; Lewis, rat, in vivo, 16 day): 3 out of 4 | lymphocyte count (group) ([2]; rat, in vivo): 2320 µL⁻¹
SMILES: C[C@@H]1C[C@H]2[C@@H]3CCC4=CC(=O)C=C[C@]4(C)[C@@]3(F)[C@@H](O)C[C@]2(C)[C@@]1(O)C(=O)CO [Dexamethasone, reference compound]
Maximum Inflammation Score measurement ([1]; Dexamethasone 1 mg/Kg): 1.50 | Mean Inflammation Score ([1]; Dexamethasone 1 mg/Kg): 0.188 | Minimum Inflammation Score measurement ([1]; Dexamethasone 1 mg/Kg): 0.0

SMILES: COc1cc(Nc2ncc(F)c(Nc3ccc4c(n3)N(COP(=O)(O)O)C(=O)C(C)(C)O4)n2)cc(OC)c1OC [Fostamatinib disodium]
activity against JAK kinases (JAK kinases): active | activity against cKit (cKit): active | activity against Src kinase (Src kinase): not against Src kinsase | activity against Flt3 (Flt3): active

SMILES: NC(=O)c1cnc(N[C@@H]2CCCC[C@@H]2N)nc1Nc1cccc(-n2nccn2)c1 [Compound 1, 4-(3-(2H-1,2,3-triazol-2-yl)phenylamino)-2-((1R,2S)-2-aminocyclohexylamino)pyrimidine-5-carboxamide]
effect on lymphocyte counts ([2]; administered as a single agent): does not produce a reduction in lymphocyte counts | Induction of apoptosis— Annexin V binding (% +ve cells) (SU-DHL4 [3]): 15.5 % +ve cells | IC50 (CD69 [4]): 0.25 to 0.5 µM | Maximum Inflammation Score measurement [1, 11]: 5.625 | Mean Inflammation Score [1, 11]: 4.868 | Minimum Inflammation Score measurement [1, 11]: 1.5 | Maximum Inflammation Score measurement [1, 12]: 4.75 | Mean Inflammation Score [1, 12]: 3.57 | Minimum Inflammation Score measurement [1, 12]: 1.38 | Maximum Inflammation Score measurement [1, 13]: 3.00 | Mean Inflammation Score [1, 13]: 2.15 | Minimum Inflammation Score measurement [1, 13]: 1.13 | Maximum Inflammation Score measurement [1, 14]: 1.125 | Mean Inflammation Score [1, 14]: 0.949 | Minimum Inflammation Score measurement [1, 14]: 0.75 | Maximum Inflammation Score measurement [1, 15]: 1.38 | Mean Inflammation Score [1, 15]: 1.016 | Minimum Inflammation Score measurement [1, 15]: 0.63 | Maximum Inflammation Score measurement [1, 16]: 1.0 | Mean Inflammation Score [1, 16]: 0.169 | Minimum Inflammation Score measurement [1, 16]: 0 | IC50 (pERK [5]; Ramos): 0.05 to 0.125 µM | IC50 (pERK [5]; SU-DHL-6, SU-DHL6): 0.1 µM | IC50 (Syk (Y525/526)): […] | Induction of apoptosis— caspase 3 cleavage (% +ve cells) (SU-DHL6 [6]): 47 % +ve cells | Syk inhibitory potency in whole blood B cell activation (CD69) (CD69 [7]): higher (reduced IC50) | percentage increase in fluorescence intensity over baseline (leukocytes; RA patient #8 on Adalimumab, 180 sec, vehicle 51%): 7% | percentage increase in fluorescence intensity over baseline (leukocytes; RA patient #8 on Adalimumab, 360 sec, vehicle 94%): 63% | percentage increase in fluorescence intensity over baseline (leukocytes; RA patient #10 on Methotrexate, 180 sec, vehicle 44%): 29% | percentage increase in fluorescence intensity over baseline (leukocytes; RA patient #10 on Methotrexate, 360 sec, vehicle 107%): 86% | percentage increase in fluorescence intensity over baseline (leukocytes; RA patient #11 on Methotrexate + prednisone, 180 sec, vehicle 165%): 69% | percentage increase in fluorescence intensity over baseline (leukocytes; RA patient #11 on Methotrexate + prednisone, 360 sec, vehicle 178%): 183% | percentage increase in fluorescence intensity over baseline (leukocytes; RA patient #12 on Etanercept, 180 sec, vehicle 61%): 17% | percentage increase in fluorescence intensity over baseline (leukocytes; RA patient #12 on Etanercept, 360 sec, vehicle 131%): 53% | number of adherent leukocytes (in words) (leukocytes; whole blood from RA patients (mild, moderate, severe) on standard of care, in vitro addition of 3 uM): reduces the number of adherent cells | number of leukocytes adhering to collagen and JAM-C coated surface (in words) (leukocytes; whole blood from healthy donors without inflammatory disease): reduces the number of leukocytes adhering | IC50 (pBLNK; SU-DHL-4, SU-DHL4): […] | IC50 (pBLNK; SU-DHL-6, SU-DHL6): 0.01 to 0.02 µM | IC50 (pERK [8]): 0.25 to 0.5 µM | Induction of apoptosis— Annexin V binding (% +ve cells) (SU-DHL6 [9]): 20.3 % +ve cells | inhibitory activity on viability of DHL4 cells (in words) (DHL4): dose responsive inhibitory activity | IC50 (pAKT): 0.05 to 0.125 µM | Induction of apoptosis— caspase 3 cleavage (% +ve cells) (SU-DHL4 [10]): 26 % +ve cells
